Data published in the NIST ThermoML archive (doi:10.1016/j.jct.2012.08.024).
Numbers after ± are expanded uncertainties.

Conditions: 101.33 kPa, Liquid; for viscosity: Capillary tube (Ostwald / Ubbelohde) method; for mass density: Vibrating tube method

| viscosity (298.15 K) | mass density (298.15 K) | viscosity (303.15 K) | mass density (303.15 K) | viscosity (308.15 K) | mass density (308.15 K) | viscosity (313.15 K) | mass density (313.15 K) | viscosity (318.15 K) | mass density (318.15 K) | viscosity (323.15 K) | mass density (323.15 K) | viscosity (328.15 K) | mass density (328.15 K) | Structure (SMILES) |
| --- | --- | --- | --- | --- | --- | --- | --- | --- | --- | --- | --- | --- | --- | --- |
| 1.087 ± 0.016 mPa·s | 785.07 ± 0.15 kg/m3 | 0.99 ± 0.02 mPa·s | 780.75 ± 0.15 kg/m3 | 0.905 ± 0.013 mPa·s | 776.41 ± 0.15 kg/m3 | 0.829 ± 0.012 mPa·s | 772.02 ± 0.15 kg/m3 | 0.761 ± 0.011 mPa·s | 767.59 ± 0.15 kg/m3 | 0.706 ± 0.01 mPa·s | 763.11 ± 0.15 kg/m3 | 0.648 ± 0.009 mPa·s | 758.58 ± 0.16 kg/m3 | CCO [ethanol] |
| 16.61 ± 0.23 mPa·s | – | 13.58 ± 0.18 mPa·s | 1106.38 ± 0.08 kg/m3 | 11.24 ± 0.15 mPa·s | – | 9.404 ± 0.13 mPa·s | 1099.31 ± 0.08 kg/m3 | 7.945 ± 0.11 mPa·s | – | 6.774 ± 0.094 mPa·s | 1092.16 ± 0.08 kg/m3 | 5.826 ± 0.081 mPa·s | – | OCCO [1,2-ethanediol] |
